Test results from patent US4749710A, “Immunosuppressive agents” (priority 1985, dated 1988).
Read-outs that look alike come from different tables or passages of the source.

Key:
Format in all cases: cell-based
[1] = tested on: IgG production by human lymphocytes; test: Inhibition of IgG production by human lymphocytes in vitro (SAC activation, ELISA); settings: 8 days, vehicle control 0.78 ± 0.09
Source text: (§1) General Test Description Humoral immunity comprises one of the two major arms of the immune system and generally is beneficial. However, a number of disease states are characterized by a hyperactive immune system responding to self tissue antigens. […] In these diseases it would be important to suppress the humoral immune system.
(§2) In the following studies we used established methods to examine the effect of Vitamin D derivatives on the in vitro production of immunoglobulin (Ig) by human peripheral blood leukocytes (PBL) following polyclonal activation. Immunoglobulin was induced from PBL by co-culturing the PBL with the polyclonal B cell activator Staphylococcus aureus strain Cowan I (SAC) for a period of 8 days. The quantity of Ig produced in the culture supernatants was determined by using an enzyme linked immunosorbent assay (ELISA). The effect of Vitamin D derivatives was determined by comparing the amount of antibody produced in cultures containing Vitamin D derivatives to those cultures containing an appropriate concentration of vehicle (ethanol).
(§3) Solutions of vitamin D derivatives. Stock solutions of vitamin D derivatives were prepared as described previously for the murine CTL experiments.
(§4) INDUCTION OF HUMAN IG SECRETION Human peripheral blood mononuclear leukocytes were prepared from one day old buffy coat preparations obtained from the American Red Cross (Lansing, MI). […] Twenty five ml of this preparation were overlayed onto 25 ml of Ficoll-Paque contained in a 50 ml polypropylene centrifuge tube. After centrifugation at 400×g at 15° C. for 40 min, the cells at the interface of the medium and Ficoll were removed and washed 3 times in 50 ml RPMI medium and centrifuged at 300×g for 10 minutes. After the final centrifugation,the cell pellet was suspended in RPMI medium containing 20% fetal bovine serum (FBS) and 80 μg/ml gentamicin. The number of viable cells was determined by trypan blue exclusion and were then suspended to 2.5×10^6 viable cells per ml in RPMI containing 20% FBS and gentamicin. Human PBL were induced to secrete Ig as follows. One hundred microliters of the PBL suspension and an additional 100 μl of a 1:20,000 (v/v) preparation of SAC suspended in RPMI containing 1% FBS were added to each well of a 96-well microtiter plate. Selected wells were also set up without the addition of SAC to serve as negative controls (spontaneous Ig secretion). Each well then received 20 μl of either the appropriate dilution of Vitamin D derivative in RPMI with 1% ethanol or RPMI with 1% ethanol (vehicle control). The vitamin D derivatives were tested at final concentrations of 10^-5, 10^-6, 10^-7, 10^-8, 10^-9, and 10^-10 M and in all cases the vehicle (ethanol) concentration was 0.1%. All treatments were performed in triplicate. […] The samples were then either assayed immediately or stored at -20° C. until assayed by the ELISA technique described below.
(§5) QUANTITATION OF SECRETED IG (ELISA ASSAY) ELISA plates were prepared for quantitating human IgG and IgM levels in culture supernatants as follows. Affinity purified sheep anti-human IgG and goat anti-human IgM (Cappel, Cochranville, PA) were diluted 1:250 and 1:400 respectively, in carbonate coating buffer (0.05M sodium bicarbonate, 0.05M sodium carbonate, 0.15M sodium chloride). One hundred and fifty microliters of the antibody preparation were added to each well of a 96 well ELISA plate (EIA, Costar). The plates were sealed and incubated overnight at 4° C. and on the following day were washed 3 times with distilled water. Each well then received 350 μl of Dulbecco's PBS containing 1 mg/ml bovine serum albumin (BSA) and 0.5 mg/ml sodium azide. The plates were allowed to incubate for 1 hour at 37° C. and then washed 3 times with Dulbecco's PBS containing 0.5% stock Tween 20 (PBS-Tween) followed by 2 washes with distilled water. The plates were air dried and stored desiccated under a vacuum at 4° C. until use.

[2] = tested on: human cytotoxic T-lymphocyte responses; test: Inhibition of human CTL responses (mixed leukocyte-tumor cultures, HT-144 melanoma, ^51 Cr release); settings: donor I, 0.01% ethanol, effector to target 6:1
Protocol: Human cells for the tests described below were taken from four donors designated I, II, III, and IV in the tables below.
Stock solutions of Vitamin D derivatives were prepared as they were prepared above in the murine tests.
Human cytotoxic T-lymphocytes were generated in mixed leukocyte-tumor cultures by known methods. Specifically, blood from normal volunteer donors was drawn into heparinized syringes, diluted 1:1 with calcium-magnesium free Hanks' balanced salt solution (Ca-Mg free HBSS), and layered over lymphocyte separation medium (Litton Bionetics, Kensington, MD). After centrifugation at 500xg for 20-30 min at room temperature, peripheral blood mononuclear cells were harvested from the interface. The peripheral blood mononuclear leukocytes were centrifuged and resuspended in Ca-Mg free HBSS and were subsequently separated from platelets by centrifugation at 500xg through a solution of 20% sucrose and 1% human AB serum in Ca-Mg free HBSS. The cells were washed once and finally resuspended in tissue culture medium. […] Cells to be used as stimulator cells in mixed leukocyte-tumor cultures were irradiated with 10,000 rads of gamma irradiation to preclude proliferation in culture. Mixed leukocyte-tumor cell cultures were established in 16 mm tissue culture wells at a final volume of 1.5 ml per well containing 2×10^6 peripheral blood mononuclear leukocytes and 5×10^4 irradiation-inactivated stimulator cells. In order to prevent the generation of nonspecific cytotoxic cells in these cultures, hydrocortisone sodium succinate was added to each culture at a final concentration of 1×10^-5 M. Mixed leukocyte-tumor cultures were incubated for 6 days in a humidified atmosphere of 5% CO2 in air.
Labelled target cells were washed free of unbound isotope by 3 serial washes in tissue culture medium and were finally resuspended at a concentration of 5×10^4 cells per ml.
Assays of human cytotoxic T-lymphocytes were done by known methods. Specifically, one-tenth ml aliquots of ^51 Cr-labelled target cell suspension were added to "half area" microtest plates and were incubated at 37° C. for 18 hours in a humidified atmosphere of 5% CO2 in air to permit the cells to adhere and spread on the floor of each well. Culture medium was then aspirated from each well and was replaced with 0.1 ml of tissue culture medium containing cells harvested from mixed leukocyte-tumor cultures which had been processed as described for murine mixed leukocute cultures, above. Control wells for measurement of spontaneous ^51 Cr release received medium without effector cells and wells for measurement of maximal releasable ^51 Cr received 0.1 ml of 2% sodium dodecyl sulfate in distilled water. After overnight incubation at 37° in a humidified atmosphere of 5% CO2 in air, 0.05 ml of cell-free supernatant was withdrawn from each well and the amount of released ^51 Cr was quantitated using a gamma spectrometer. The percentage of specific ^51 Cr release (CTL activity) and the percent inhibition of CTL activity were calculated with the same formulas used above for the murine CTL assay.
Tests conducted on human cytotoxic T-lymphocyte responses are reported as the mean±standard error of the mean from triplicate ^51 Cr release determinations on pooled cells from duplicate control or test cultures.

[3] = tested on: IgM production by human lymphocytes; test: Inhibition of IgM production by human lymphocytes in vitro (SAC activation, ELISA); settings: 8 days, vehicle control 2.49 ± 0.17
Source text: as §1, §2, §3, §4, §5

## C=C1/C(=C\C=C2/CCC[C@]3(C)[C@@H]([C@H](C)CC[C@@H](F)C(C)(C)O)CC[C@@H]23)C[C@@H](O)C[C@@H]1O [24R-F--1α,25-(OH)2 --D3, 1α,25-Dihydroxy-24R-fluorocholecalciferol]
[1]; 1 × 10^-6 molar
  IgG μg per culture (x ± S.E.M.): undetectable
[1]; 1 × 10^-7 molar
  IgG μg per culture (x ± S.E.M.): 0.01 ± 0.002 μg per culture
[1]; 1 × 10^-8 molar
  IgG μg per culture (x ± S.E.M.): 0.10 ± 0.02 μg per culture
[1]; 1 × 10^-9 molar
  IgG μg per culture (x ± S.E.M.): 0.22 ± 0.05 μg per culture
[1]; 1 × 10^-10 molar
  IgG μg per culture (x ± S.E.M.): 0.21 ± 0.06 μg per culture
[2]; Homo sapiens, T-lymphocyte, Test 1, 1 × 10^-6 molar, read-out: Inhibition of CTL activity (%)
  inhibition at 1 µM: 87%
[2]; Homo sapiens, T-lymphocyte, Test 1, 1 × 10^-7 molar, read-out: Inhibition of CTL activity (%)
  inhibition at 0.1 µM: 62%
[2]; Homo sapiens, T-lymphocyte, Test 2, 1 × 10^-5 molar, read-out: Inhibition of CTL activity (%)
  inhibition at 10 µM: 94%
[2]; Homo sapiens, T-lymphocyte, Test 2, 1 × 10^-6 molar, read-out: Inhibition of CTL activity (%)
  inhibition at 1 µM: 100%
[2]; Test 1, 1 × 10^-6 molar
  CTL activity (% specific ^51 Cr release): 7 ± 6 % specific ^51 Cr release
[2]; Test 1, 1 × 10^-7 molar
  CTL activity (% specific ^51 Cr release): 20 ± 1 % specific ^51 Cr release
[2]; Test 2, 1 × 10^-5 molar
  CTL activity (% specific ^51 Cr release): 3 ± 4 % specific ^51 Cr release
[2]; Test 2, 1 × 10^-6 molar
  CTL activity (% specific ^51 Cr release): 0 ± 3 % specific ^51 Cr release
[3]; 1 × 10^-6 molar
  IgM μg per culture (x ± S.E.M.): undetectable
[3]; 1 × 10^-7 molar
  IgM μg per culture (x ± S.E.M.): 0.12 ± 0.06 μg per culture
[3]; 1 × 10^-8 molar
  IgM μg per culture (x ± S.E.M.): 1.23 ± 0.03 μg per culture
[3]; 1 × 10^-9 molar
  IgM μg per culture (x ± S.E.M.): 3.13 ± 0.41 μg per culture
[3]; 1 × 10^-10 molar
  IgM μg per culture (x ± S.E.M.): 3.84 ± 0.72 μg per culture
